Measured values taken from patent US20060002934A1 (priority 2002, published 2006).
Entries after “also recorded” stand apart in the source; their conditions may differ.

Experiments:
Format in all cases: cell-based, human
[1] = tested on: MDA-MB-435S cells expressing del 8 E-cadherin; experiment: Cell motility by time-lapse laser scanning microscopy, del 8 E-cadherin transfectants; details: del 8 E-cadherin cells on collagen I, Tyrphostin AG 1478 6.3 μM; for cell motility enhanced by mutant E-cadherin (effect of inhibitor): 7 h, PD 98059 50 μM, LY 294002 40 μM
Description: For time-lapse laser scanning microscopy, cells were cultivated in a microscope-coupled incubation chamber (Zeiss, Jena, Germany) at 37° C. under 5% CO2. Cells were seeded at a density of 2×10^5 cells per 3.5-cm in plates with a glass bottom which were purchased either uncoated or coated with poly-lysine from MatTek Corporation (Ashland, Mass., USA). Uncoated plates were coated for 4 h at 37° C. with collagen I (100 μg/ml, Sigma, Deisenhofen, Germany) or overnight at 4° C. with fibronectin (10 μg/ml, Sigma) or vitronectin (10 μg/ml, Becton Dickinson, Bedford, USA). Kinase inhibitors were used at final concentrations of 50 μM (PD 98059, Sigma, Deisenhofen, Germany), 40 μM (LY 294002, Calbiochem, Schwalbach, Germany), or 6.3 μM (Tyrphostin AG 1478, Sigma). […] Phase contrast images were taken at 3 min intervals with an Axiovert laser scanning microscope LSM 510 (Zeiss) with lens PNF 20×/0.4 PH2 and a helium-neon laser at 543 nm in transmission scanning mode. The percentage of motile cells was measured by drawing the outlines of cells on the screen and counting the cells which moved completely out of the initial area within the recording time of 7 h. Semiautomatic tracing of cell nuclei using the laser scanning microscope software from Zeiss allowed determination of the individual cell speed. The calculation of the cell speed is based on the division of the displacement of an individual cell divided by the total time of recording. Cells were brought in suspension by disruption of cell-cell and cell-matrix interactions and seeded on glass plates precoated with collagen type 1. Cell motility was analyzed by long-term recordings of a duration of 7 h starting 2 h after plating using a laser scanning microscope coupled with a temperature- and CO2-controlled incubation chamber. Motile cells were defined as cells which were able to move out of their initial space within 7 h according to a method described by Marks (J. Cell Bioll. 112 (1991), 149-158). The percentage of motile cells was similar in non-transfected (30%) or wt E-cadherin expressing MDA-MB-435S cells (26%) but elevated upon expression of mutant E-cadherin: […] (52%), […] (58%) and p8 (45%, FIG. 1B). It has been shown for a number of cell lines that the motile behavior of individual cells is variable and therefore it is advisable to investigate a large number of cells to obtain a reliable determination of cellular velocity (Hartmann-Petersen, Cytometry 40 (2000), 260-270). In order to determine the motility of individual cells, the center of the nucleus was semiautomatically traced and the speed of 60 cells per cell line derived from at least three independent experiments was calculated. The range between the minimal and the maximal cell speed and the median of cell speeds were used as motility parameters. […]

p44/42 MAP kinase = experiment: Western blot with phosphorylation-specific antibodies, MAP kinase; details: data not shown
Description: (§1) For immunoblot analysis, cells were seeded at a density of 6×10^5 cells per 10 cm tissue culture dish and lysed 5 h later with 500 μL-CAM buffer (140 mM NaCl, 4.7 mM KCl, 0.7 mM MgSO4, 1.2 mM CaCl2, 10 mM Hepes pH 7.4, containing 1% (v/v) Triton-X-100 and 1 mM phenylmethylsulfonylfluoride (PMSF) (Cunningham, Proc. Acad. Sci. USA 81 (1984), 5787-5791). Proteins were separated by 7% SDS-polyacrylamide gel electrophoresis followed by transfer to nitrocellulose (Schleicher & Schuell, Dassel, Germany) or PVDF (Bio-Rad Laboratories, München, Germany) membranes. Polyclonal antibodies against total or activated kinases were purchased from New England Biolabs (Frankfurt, Germany): Akt antibody (#9272), detecting total Akt kinase levels, phospho-Akt antibody (Ser473, #9270), detecting phosphorylated Ser 473 in Akt1, Akt2 and Akt3, MAP kinase antibody (# 9102), detecting total MAP kinase, phospho-p44/42 MAP kinase (#9101) detecting activated MAP kinase phosphorylated at Thr 202/[…]. Monoclonal antibody against p53 was purchased from Oncogene Research Products (Ab-6, #OP43). Polyclonal antibodies against total or activated p38 MAP kinases were purchased from New England Biolabs. Phospho-p38 MAP kinase polyclonal antibody (#9211) detects phosphorylated threonine 180 and tyrosine 182 p38 MAP kinase (#9212). […]

Akt/PKB = experiment: Western blot with phosphorylation-specific antibodies, Akt/PKB; details: data not shown
Description: as §1

[2] = tested on: wt-EcadEGFP expressing MDA-MB-435S cells; experiment: Time-lapse imaging of motility and E-cadherin localization, wt-EcadEGFP transfectants; details: for cell motility (range of cell speeds) / cell paths (range): wt-EcadEGFP cells, 10 cells, 4 h
Description: (§2) For time-lapse laser scanning microscopy, cells were cultivated overnight in a microscope-coupled incubation chamber (Zeiss, Jena, Germany) at 37 °C under 5% CO2. Cells were seeded at a density of 1×10^5 cells per 3.5-cm in collagen I-coated plates with a glass bottom which were purchased from MatTek Corporation (Ashland, Mass., USA). Uncoated plates were coated for 4 h at 37° C. with collagen I (100 μg/ml). EGFR kinase inhibitor Tyrphostin AG 1478 (Sigma, Deisenhofen, Germany) was used at a final concentration of 6.3 μM. […] Phase contrast images were taken at 2-3 min intervals with an Axiovert laser scanning microscope LSM 510 (Zeiss) with lens PNF 63× (oil) and an argon laser at 488 nm with a transmission filter of 515 nm.
(§3) To investigate the temporal localization of mutant E-cadherin during cell migration, EcadEGFP transfected cells were cultivated in an incubation chamber coupled with a Zeiss Axiovert 100 microscope. Cells transfected with the vector pEGFP-N2 Vektor or the different EcadEGFP constructs (wt-EcadEGFP and p8-EcadEGFP), were seeded on collagen I coated dishes with glas bottom.

[3] = tested on: p8-EcadEGFP expressing MDA-MB-435S cells; experiment: Time-lapse imaging of motility and E-cadherin localization, p8-EcadEGFP transfectants
Description: as §2, §3

[4] = tested on: MDA-MB-435S cells expressing wt E-cadherin; experiment: Cell motility by time-lapse laser scanning microscopy, wt E-cadherin transfectants
Description: For time-lapse laser scanning microscopy, cells were cultivated in a microscope-coupled incubation chamber (Zeiss, Jena, Germany) at 37° C. under 5% CO2. Cells were seeded at a density of 2×10^5 cells per 3.5-cm in plates with a glass bottom which were purchased either uncoated or coated with poly-lysine from MatTek Corporation (Ashland, Mass., USA). Uncoated plates were coated for 4 h at 37° C. with collagen I (100 μg/ml, Sigma, Deisenhofen, Germany) or overnight at 4° C. with fibronectin (10 μg/ml, Sigma) or vitronectin (10 μg/ml, Becton Dickinson, Bedford, USA). Kinase inhibitors were used at final concentrations of 50 μM (PD 98059, Sigma, Deisenhofen, Germany), 40 μM (LY 294002, Calbiochem, Schwalbach, Germany), or 6.3 μM (Tyrphostin AG 1478, Sigma).
Phase contrast images were taken at 3 min intervals with an Axiovert laser scanning microscope LSM 510 (Zeiss) with lens PNF 20×/0.4 PH2 and a helium-neon laser at 543 nm in transmission scanning mode. The percentage of motile cells was measured by drawing the outlines of cells on the screen and counting the cells which moved completely out of the initial area within the recording time of 7 h. […]
Cells were brought in suspension by disruption of cell-cell and cell-matrix interactions and seeded on glass plates precoated with collagen type 1. Cell motility was analyzed by long-term recordings of a duration of 7 h starting 2 h after plating using a laser scanning microscope coupled with a temperature- and CO2-controlled incubation chamber. […]
It has been shown for a number of cell lines that the motile behavior of individual cells is variable and therefore it is advisable to investigate a large number of cells to obtain a reliable determination of cellular velocity (Hartmann-Petersen, Cytometry 40 (2000), 260-270). In order to determine the motility of individual cells, the center of the nucleus was semiautomatically traced and the speed of 60 cells per cell line derived from at least three independent experiments was calculated. […]

[5] = collagen I, Tyrphostin AG1478 6,3 μM
[6] = p8-EcadEGFP cells, collagen I, Tyrphostin AG1478 6,3 μM, 10 cells, 4 h
[7] = serum starved overnight, EGF 100 ng/ml

| Molecule | cell motility enhanced by mutant E-cadherin (effect of inhibitor) [1] | median and range of cell speeds ([1]; traced 7 h) | percentage of motile cells ([1]; traced 7 h) | EGF-induced activation of MAP kinase (phosphorylation) (p44/42 MAP kinase) | EGF-induced activation of Akt/PKB (Akt/PKB) | localization of wt-EcadEGFP ([2]; Tyrphostin AG1478 6,3 μM) | cell motility (range of cell speeds) [2, 5] | cell paths (range) [2, 5] | localization of p8-EcadEGFP ([3]; Tyrphostin AG1478 6,3 μM) | cell motility (range of cell speeds) [3, 6] | cell paths (range) [3, 6] | percentage of motile cells ([4]; wt E-cadherin cells on collagen I, 7 h, EGF 100 ng/ml) | cellular motility ([4]; wt E-cadherin cells, EGF treatment) | cell morphology ([4]; wt or del 8 E-cadherin cells on collagen I, 2 h after plating, EGF 100 ng/ml (FIG. 5C)) | cell motility (range of cell speeds) [2, 7] | cell paths (range) [2, 7] | effect on the motility of p8-EcadEGFP transfected cells ([3]; EGF 100 ng/ml, p=0,364 Kruskal Wallis Test) | cell paths (range) ([3]; p8-EcadEGFP cells, serum starved overnight, EGF 100 ng/ml, 10 cells, 4 h) | localization of p8-EcadEGFP ([3]; serum starved, EGF 100 ng/ml) |
| --- | --- | --- | --- | --- | --- | --- | --- | --- | --- | --- | --- | --- | --- | --- | --- | --- | --- | --- | --- |
| COc1cc2ncnc(Nc3cccc(Cl)c3)c2cc1OC [Tyrphostin AG 1478] | sensitive | decreased to the level of wt E-cadherin expressing cells | decreased to the level of wt E-cadherin expressing cells | completely blocked | completely blocked | not significantly changed; also recorded: no influence | 1,3-8,8 μm/h | 15,1-35,2 μm | also localized perinuclear and at cell cell adhesion sites; also recorded: localized at cell cell contacts and perinuclear | 5,7-20 μm/h | 22,8-80,3 μm | – | – | – | – | – | – | – | – |
| COc1cccc(-c2cc(=O)c3ccccc3o2)c1N [PD 98059] | less effective; also recorded: no inhibitory effect | – | – | effectively blocked | – | – | – | – | – | – | – | – | – | – | – | – | – | – | – |
| epidermal growth factor [EGF] | – | – | – | – | – | – | – | – | – | – | – | increased to the level of del 8 E-cadherin expressing cells | enhanced cellular motility | developed filopodia and lost cell to cell contacts | 3,8-15,6 μm/h | 15,1-62,4 μm | only minor effects | 19,7-97,2 μm | detectable at the cell edges and in lamellipodiae and at cell cell contact sites; also recorded: no influence |
